The subject of series [1] is Aeromonas hydriphila HG3 (RV 5.1). The note with it: Microbial Toxic Concentration, incubation time 16 h. As to the method:
(§1) • dispense 150 μl of growth medium with indicator in each well • add a concentration gradient of the chemical to be tested to rows B-H in a MARA plate (i.e. an indicator device according to the present invention) • incubate for 16 h • read absorbance values; and • analyse with software.
(§2) Microbial responses to different chemicals was estimated by kinetic measurements of their growth using the Labsystem automated IEMS reader. A computer software that could monitor incubation temperatures, reading intervals, and automatically transfer OD data to a computer was developed. A growth medium containing 0.05% peptone, 0.011% bromothymol blue (BTB), 1% sodium chloride and 0.3% glucose was added to all wells. The glucose acts as a carbon source, and during growth the microorganism will break down the glucose and produce acids, that will turn the initially blue indicator to yellow. Each microplate contains 12 columns and 8 rows, and thus in each plate, 11 lyophilized microbial strains were used (one for each column, the 12th column was used as negative control). […] In order to avoid drying out of the plates during the incubation, one drop of sterile mineral oil was added to each well. The plate was then incubated in the IEMS spectrophotometer and the absorbance value from each well was measured every second hour during 48 h.
(§3) The overall toxicity of the chemical compound can be described either as the mean of all 11 MTC values (shown in column 12), or as the minimum value for all 11 microbial strains used in the assay (marked with bold in the table).

Series [2] relates to JG2 (strain of marine origin). The note with it: Microbial Toxic Concentration, incubation time 16 h. The protocol:
as §1, §2, §3

Series [3] deals with Saccaromyces ceriviciae (bakers yeast). The note with it: Microbial Toxic Concentration, incubation time 16 h. As to the method: as §1, §2, §3
Series [4] relates to Staphylococcus epidermidis (Karin12). Description: MARA indicator device toxic fingerprint, microorganism no. 11. Conditions: Microbial Toxic Concentration, incubation time 16 h. As to the method: as §1, §2, §3
In a further series the test system is E. coli MZ 480. Description: MARA indicator device toxic fingerprint, microorganism no. 8. Conditions: Microbial Toxic Concentration, incubation time 16 h. As to the method:
as §1, §2, §3

Another series has as its system E. coli. Conditions: IC50-values, established assay; cited from earlier work.
A further series relates to microorganism no. 7. Description: MARA indicator device toxic fingerprint, microorganism no. 7. Conditions: Microbial Toxic Concentration, incubation time 16 h. As to the method:
as §1, §2, §3

In series [5] the test system is β-proteobacterium A22 (Kalmar 200). Description: MARA indicator device toxic fingerprint, microorganism no. 5. Conditions: Microbial Toxic Concentration, incubation time 16 h. The protocol: as §1, §2, §3
The next series relates to Daphnia. Conditions: IC50-values, established assay; cited from earlier work.
For series [6], the system named is Photobacterium phosphoreum. Conditions: IC50-values, established assay; cited from earlier work.
Series [7] deals with 11 different microbial strains. The note with it: for Inhibitory concentrations by method: MARA MTCmin: MTC value of the strain showing the highest sensitivity; for Inhibitory concentrations by method: MARA MTCmean: mean MTC for the 11 microbial strains; for Toxic fingerprint: MTC value, Mean: mean of all 11 MTC values. The protocol:
as §1, §2, §3
Concentrations are given in mg/ml.

In the next series the test system is ObanF. The note with it: Microbial Toxic Concentration; incubation time 16 h. As to the method:
as §1, §2, §3

Series [8] deals with JG1 (strain of marine origin). The note with it: Microbial Toxic Concentration; incubation time 16 h. The protocol:
as §1, §2, §3

The subject of series [9] is JG4 (strain of marine origin). Conditions: Microbial Toxic Concentration; incubation time 16 h. As to the method: as §1, §2, §3
Series [10] relates to JG3 (strain of marine origin). Description: MARA indicator device toxic fingerprint, microorganism no. 3. The note with it: Microbial Toxic Concentration; incubation time 16 h. As to the method:
as §1, §2, §3

Values joined by “and” are separate entries in the source; they are usually repeats but may differ in a detail not shown here. Identical values can stand only once. Counter-ions that a name gives are not always drawn. Like-named read-outs stand apart in the source and are kept apart here.

In the case of `Cn1c(=O)c2c(ncn2C)n(C)c1=O` [Caffeine], the “Toxic fingerprint: MTC value for microorganism no. 6” value in series [1] came to 2.190; in [1] (listed as Coffein), 1.300. The “Toxic fingerprint: MTC value for microorganism no. 2” value in series [2] was found to be 1.010; in [2] (listed as Coffein), 1.080. The “Toxic fingerprint: MTC value for microorganism no. 10” value in [3] turned out to be 0.790; in series [3] (listed as Coffein), 0.785. For the same compound, the “Toxic fingerprint: MTC value for microorganism no. 11” value in series [4] is given as 6.060; in series [4] (listed as Coffein), 2.310. For the same compound, the “Toxic fingerprint: MTC value for microorganism no. 8” value in the series on E. coli MZ 480 is 3.430; in the series on E. coli MZ 480 (listed as Coffein) it was 3.500. Further, the “Inhibitory concentrations by method: E. coli” value in the series on E. coli was 15.426 mg/mL. Moreover, the “Toxic fingerprint: MTC value for microorganism no. 7” value in the series with microorganism no. 7 is given as 2.930; in the series with microorganism no. 7 (listed as Coffein), 1.510. For the same compound, the “Toxic fingerprint: MTC value for microorganism no. 5” value came to 0.973 in series [5] and 3.550 in series [5] (listed as Coffein). Also, in the series on Daphnia, the “Inhibitory concentrations by method: Daphnia” value is 0.158 mg/mL. Further, the “Inhibitory concentrations by method: Microtox” value in [6] was 2.129 mg/mL. Also, in [7], the “Inhibitory concentrations by method: MARA MTCmin” value was 0.788 mg/mL. Moreover, the “Inhibitory concentrations by method: MARA MTCmean” value in series [7] was determined as 2.085 mg/mL. Also, the “Toxic fingerprint: MTC value, Mean” value came out at 2.250 in [7] and 1.920 in series [7] (listed as Coffein).
As for `O=S(=O)([O-])[O-].[Li+].[Li+]` [Lithium Sulphate], in the series with ObanF, the “Toxic fingerprint: MTC value for microorganism no. 9” value is 23.400 and 17.500. For the same compound, in series [1], the “Toxic fingerprint: MTC value for microorganism no. 6” value is 10.600 and 8.490. Besides, in series [2], the “Toxic fingerprint: MTC value for microorganism no. 2” value is 6.300 and 7.170. Further, the “Toxic fingerprint: MTC value for microorganism no. 1” value in series [8] is 3.700 and 4.780. In addition, in series [3], the “Toxic fingerprint: MTC value for microorganism no. 10” value was 2.650 and 3.570. The “Toxic fingerprint: MTC value for microorganism no. 4” value in series [9] was 4.590 and 7.950. For the same compound, in series [4], the “Toxic fingerprint: MTC value for microorganism no. 11” value was 22.400 and 15.300. Moreover, the “Toxic fingerprint: MTC value for microorganism no. 8” value in the series on E. coli MZ 480 was 41.800 and 25.400. Moreover, the “Inhibitory concentrations by method: E. coli” value in the series on E. coli is 67.764 mg/mL. The “Toxic fingerprint: MTC value for microorganism no. 5” value in [5] was 14.500 and 10.000. Besides, the “Toxic fingerprint: MTC value for microorganism no. 3” value in series [10] is 12.200 and 12.700. In the series on Daphnia, the “Inhibitory concentrations by method: Daphnia” value was 0.033 mg/mL. In addition, the “Inhibitory concentrations by method: Microtox” value in [6] is 25.763 mg/mL. For the same compound, in [7], the “Inhibitory concentrations by method: MARA MTCmin” value came out at 3.11 mg/mL; the “Inhibitory concentrations by method: MARA MTCmean” value came to 11.330 mg/mL; the “Toxic fingerprint: MTC value, Mean” value was 9.960 and 12.700.
Turning to `Oc1c(Cl)c(Cl)c(Cl)c(Cl)c1Cl` [Penta Chloro Phenol], the “Toxic fingerprint: MTC value for microorganism no. 9” value in the series with ObanF is 0.004 and 0.003. Further, the “Toxic fingerprint: MTC value for microorganism no. 6” value in series [1] was 0.003 and 0.006. For the same compound, the “Toxic fingerprint: MTC value for microorganism no. 2” value in series [2] stood at 0.001. Besides, in [8], the “Toxic fingerprint: MTC value for microorganism no. 1” value was 0.006 and 0.004. Moreover, in series [9], the “Toxic fingerprint: MTC value for microorganism no. 4” value was 0.009 and 0.010. The “Toxic fingerprint: MTC value for microorganism no. 11” value in series [4] was determined as 0.001. Besides, in the series on E. coli MZ 480, the “Toxic fingerprint: MTC value for microorganism no. 8” value is 0.005 and 0.006. The “Inhibitory concentrations by method: E. coli” value in the series with E. coli was 0.010 mg/mL. Also, the “Toxic fingerprint: MTC value for microorganism no. 7” value with microorganism no. 7 was 0.005 and 0.007. Also, the “Toxic fingerprint: MTC value for microorganism no. 5” value in series [5] is 0.007 and 0.004. The “Inhibitory concentrations by method: Daphnia” value in the series with Daphnia was 0.001 mg/mL. In addition, the “Inhibitory concentrations by method: Microtox” value in [6] was 0.001 mg/mL. Further, in series [7], the “Inhibitory concentrations by method: MARA MTCmin” value was found to be 0.001 mg/mL; the “Inhibitory concentrations by method: MARA MTCmean” value is 0.005 mg/mL; the “Toxic fingerprint: MTC value, Mean” value is 0.004 and 0.005.
As to `[F-].[Na+]` [Sodium Fluoride], in the series with ObanF, the “Toxic fingerprint: MTC value for microorganism no. 9” value was 22.700 and 20.100. Moreover, in series [2], the “Toxic fingerprint: MTC value for microorganism no. 2” value was 2.660 and 2.930. Besides, in [8], the “Toxic fingerprint: MTC value for microorganism no. 1” value was 3.290 and 2.220. Moreover, the “Toxic fingerprint: MTC value for microorganism no. 10” value in [3] is 5.650 and 4.130. Moreover, the “Toxic fingerprint: MTC value for microorganism no. 4” value in series [9] is 6.040 and 6.560. Moreover, the “Toxic fingerprint: MTC value for microorganism no. 8” value with E. coli MZ 480 is 11.400 and 14.600. The “Inhibitory concentrations by method: E. coli” value with E. coli is 10.547 mg/mL. Moreover, the “Toxic fingerprint: MTC value for microorganism no. 7” value in the series with microorganism no. 7 is 6.450 and 7.890. Also, the “Toxic fingerprint: MTC value for microorganism no. 5” value in series [5] is 9.500 and 15.000. The “Inhibitory concentrations by method: Daphnia” value in the series on Daphnia is 0.636 mg/mL. Also, the “Inhibitory concentrations by method: Microtox” value in series [6] was 9.843 mg/mL. Moreover, in series [7], the “Inhibitory concentrations by method: MARA MTCmin” value was found to be 4.890 mg/mL; the “Inhibitory concentrations by method: MARA MTCmean” value is 8.050 mg/mL; the “Toxic fingerprint: MTC value, Mean” value was 6.930 and 9.170.
For the compound `COc1ccc(CCN(C)CCCC(C#N)(c2ccc(OC)c(OC)c2)C(C)C)cc1OC` (centres unmarked) [Verapamil HCl], in the series with ObanF, the “Toxic fingerprint: MTC value for microorganism no. 9” value is listed as 0.510. In [1], the “Toxic fingerprint: MTC value for microorganism no. 6” value turned out to be 1.090. The “Toxic fingerprint: MTC value for microorganism no. 2” value in series [2] was 0.247. Further, in series [8], the “Toxic fingerprint: MTC value for microorganism no. 1” value is recorded as 0.326. The “Toxic fingerprint: MTC value for microorganism no. 10” value in series [3] came out at 0.877. Further, in series [9], the “Toxic fingerprint: MTC value for microorganism no. 4” value came to 3.100. The “Toxic fingerprint: MTC value for microorganism no. 11” value in [4] is on record as 0.371. Moreover, the “Toxic fingerprint: MTC value for microorganism no. 8” value in the series with E. coli MZ 480 is 0.360. For the same compound, the “Inhibitory concentrations by method: E. coli” value with E. coli was 0.834 mg/mL. Moreover, the “Toxic fingerprint: MTC value for microorganism no. 7” value in the series on microorganism no. 7 worked out at 2.950. Besides, the “Toxic fingerprint: MTC value for microorganism no. 5” value in series [5] came out at 0.591. The “Toxic fingerprint: MTC value for microorganism no. 3” value in [10] came to 0.128. Moreover, the “Inhibitory concentrations by method: Daphnia” value in the series with Daphnia was 0.055 mg/mL. Further, the “Inhibitory concentrations by method: Microtox” value in [6] was 0.438 mg/mL. In series [7], the “Inhibitory concentrations by method: MARA MTCmin” value was found to be 0.360 mg/mL; the “Inhibitory concentrations by method: MARA MTCmean” value came to 0.811 mg/mL; the “Toxic fingerprint: MTC value, Mean” value was found to be 0.811.
For Kinidin sulphate, in the series on ObanF, the “Toxic fingerprint: MTC value for microorganism no. 9” value is 0.254 and 0.329. In series [1], the “Toxic fingerprint: MTC value for microorganism no. 6” value is 0.099 and 0.141. Besides, the “Toxic fingerprint: MTC value for microorganism no. 2” value in [2] was 0.053 and 0.076. The “Toxic fingerprint: MTC value for microorganism no. 1” value in [8] is 0.108 and 0.102. In addition, the “Toxic fingerprint: MTC value for microorganism no. 10” value in series [3] was 0.091 and 0.072. Moreover, the “Toxic fingerprint: MTC value for microorganism no. 4” value in series [9] is 0.243 and 0.233. For the same compound, in [4], the “Toxic fingerprint: MTC value for microorganism no. 11” value is 0.088 and 0.085. Moreover, the “Inhibitory concentrations by method: E. coli” value with E. coli was 1.009 mg/mL. Also, the “Toxic fingerprint: MTC value for microorganism no. 7” value in the series on microorganism no. 7 is 0.138 and 0.275. Further, the “Toxic fingerprint: MTC value for microorganism no. 3” value in series [10] is 0.113 and 0.104. The “Inhibitory concentrations by method: Daphnia” value with Daphnia was 0.062 mg/mL. Moreover, the “Inhibitory concentrations by method: Microtox” value in series [6] was 0.092 mg/mL. Moreover, in [7], the “Inhibitory concentrations by method: MARA MTCmin” value worked out at 0.087 mg/mL; the “Inhibitory concentrations by method: MARA MTCmean” value was 0.148 mg/mL; the “Toxic fingerprint: MTC value, Mean” value was 0.150 and 0.145.

(Values after patent US8551921B2, “Method for determining the toxicity of an environmental or chemical sample” (priority 2000, dated 2013).)
